Experimental data published in article PMC8495455, “Discovery of a transdermally deliverable pentapeptide for activating AdipoR1 to promote hair growth” (EMBO Molecular Medicine, 2021).

Experiments:
[1] = test system: p-AMPK in human buttock skin; assay: Topical application of P5 on human skin in vivo, p-AMPK (IF, Western blot); conditions: topical 0.075, 0.75, 1.5, or 7.5 mM on buttock, occluded, 24 h; IF and Western blot
Excerpt: (§1) Next, we checked whether topically applied P5 can be delivered into human skin using ex vivo skin tissue culture model (Fig EV4A) (Haslam et al, [2018]). After topical application of vehicle or P5 on the ex vivo skin tissue, the dermal lysate of each tissue was examined by the qualitative mass spectrometry (MS). […] To trace the origin of P5, we used isotope‐marked P5 (P5*), in which carbon (^12C) atoms of Gly were substituted with isotope carbon atoms (^13C) increasing the molecular weight by 2 compared to that of original P5 (Fig EV4B). […] Collectively, P5 can be transdermally delivered into human skin.
Human ORS and DP cells or skin tissue were lysed (RIPA lysis buffer; #20‐188; Merck Millipore). The obtained protein was then separated by 8% SDS–PAGE and transferred to a polyvinylidene fluoride membrane (Amersham). The protein transferred membranes were incubated overnight with the specific antibodies. […] Antibody‐antigen complexes detected by enhanced chemiluminescent substrate (Thermo Fisher) were captured and quantified by Amersham imager 680 systems (GE Healthcare).
Paraffin‐embedded mouse cutaneous back tissue was sectioned (4 μm thickness) and stained with hematoxylin and eosin. […] IF intensity was observed and recorded with a Nikon Eclipse Ni‐E fluorescence microscope (Nikon). […]

[2] = Transdermal delivery in ex vivo human skin tissue culture, qualitative MS of dermal lysate; type: in vitro ADME; conditions: 50 mM in DMSO placed daily, 5 days, 37°C, dermal lysate in 50% methanol
Excerpt: as §1
Topical application of peptides on ex vivo skin study was performed as described previously (Haslam et al, [2018]). Briefly, full thickness skin tissue from cadavers within 48 h after death was acquired and biopsied using a 6 mm punch. The skin tissue was acclimatized in supplemented Williams’ E media with L‐glutamine (2 mM), penicillin‐streptomycin solution (1×), hydrocortisone (10 ng/ml), and insulin (100 ng/ml) overnight at 37°C in a 5% CO2 atmosphere. After acclimatization, the skin tissue was carefully pulled through a cell strainer with the epidermis exposed to the air, leaving the dermis submerged in the culture media. […] The lysate was qualitatively analyzed by a MS system (API 4000 Q‐trap; AB SCIEX).

VEGF mRNA = assay: qRT-PCR growth factor gene expression in DP cells, VEGF; type: cell-based, human; conditions: for mRNA_VEGF: DP cells
Excerpt: Next, we investigated the downstream effects of P5 on hair growth factor genes and proteins in DP cells. […] We tested whether P5 can also increase the mRNA levels and proteins of hair growth factors in DP cells: IGF‐1, VEGF, HGF, platelet‐derived growth factor alpha (PDGFA), and fibroblast growth factor (FGF) 7, which are known to induce or maintain the anagen phase of the hair cycle (Jindo et al, [1994]; Philpott et al, [1994]; Yano et al, [2001]; Jang, [2005]; Tomita et al, [2006]; Iino et al, [2007]).
Total RNA was isolated from P5‐treated DP cells using RNAiso Plus (#9109; TaKaRa). We used the total RNA (1 µg) for cDNA synthesis using a RevertAid First Strand cDNA Synthesis Kit (Thermo Fisher) according to the manufacturer's instructions. The mRNA expression levels were quantified on a 7500 Real‐time PCR System (Thermo Fisher) using TB Green Premix Ex Taq (TaKaRa Bio): human IGF‐1, VEGF, HGF, PDGFA, FGF7, and glyceraldehyde 3‐phosphate dehydrogenase (GAPDH) (Appendix Table S2). The relative expression levels of each gene were determined by the 2^‐ΔΔCT method.

With “GLYYF [P5, GST-fused (GST-P5) in pulldown assays]” the “Phosphorylation of AMPK in human skin in vivo” value [1] was “induced the phosphorylation of AMPK in dermis as well as epidermis”, the “Detection in skin dermis after topical application (transdermal delivery)” value [2] was “qualitatively detected” and the mRNA_VEGF (VEGF mRNA; P5 5μM, relative to Control = 1, replicate 1) was 1.194. The mRNA_VEGF (VEGF mRNA; P5 5μM, relative to Control = 1, replicate 2) was 1.24, the mRNA_VEGF (VEGF mRNA; P5 5μM, relative to Control = 1, replicate 3) was 0.9876 and the mRNA_VEGF (VEGF mRNA; P5 5μM, relative to Control = 1, replicate 4) was 0.849. It also gave a mRNA_VEGF (VEGF mRNA; P5 25μM, relative to Control = 1, replicate 1) of 2.123, a mRNA_VEGF (VEGF mRNA; P5 25μM, relative to Control = 1, replicate 2) of 1.672 and a mRNA_VEGF (VEGF mRNA; P5 25μM, relative to Control = 1, replicate 3) of 2.456. The mRNA_VEGF (VEGF mRNA; P5 25μM, relative to Control = 1, replicate 4) was 1.575 and the “VEGF mRNA expression” value (VEGF mRNA; P5-treated DP cells, n = 4) was “significantly increased”.
